Source: patent US7344845B2, “Olfactory receptor for isovaleric acid and related malodorants and use thereof in assays for identification of blockers of malodor” (Senomyx, Inc., priority 2001, dated 2008)

System: individual murine olfactory neurons
Assay: Ca2+ imaging (fura-2) of isolated murine olfactory neurons contacted with isovaleric acid
Type: cell-based, Balb/C mice
Protocol: Essentially, individual murine olfactory neurons isolated from an enzymatically and mechanically dissociated preparations of murine olfactory epithelium. A very mild trypsin dissociation allows to obtain a single cell suspension in which neurons still bear their axon and dendrites and can therefore be picked based on their morphology. The neurons were loaded with a Ca^2+-sensing fluorescent dye (fura-2) and contacted with isovaleric acid (at 10–100 μM). Single neurons that responded to the isovaleric acid stimulus, as indicated by transient increases in the concentration of intracellular Ca2+ were identified in a microscope field and collected using a suction microcapillary. […]
Olfactory neuroepithelium was dissected from Balb/C mice and placed in a small Petri dish with phosphate-buffered saline (PBS) without Ca^2+ and Mg^2+. […] After dissociation, the tissue was transferred into 5 ml PBS without Ca^2+ and Mg^2+ and the tissue was triturated very gently by pipetting up and down 4–5 times with plastic disposable, progress of cell dissociation was monitored under inverted microscope. […] Isolated olfactory sensory neurons were identified in an inverted microscope field either by their morphology alone (for random control neurons) or by the morphology and ability to respond to IVA as detected by Ca^2+-imaging. […]

In the case of CC(C)CC(=O)O [isovaleric acid], the “response of a single olfactory neuron indicated by changes in fura-2 fluorescence intensity ratios (340/380 nm)” value (IVA at either 100 μM or 10 μM, single isolated neuron, FIG. 3) is reported as “response” and the “murine olfactory receptors activated (receptors expressed in IVA-responding neurons)” value (isovaleric acid at 10–100 μM, eleven murine olfactory receptors, mOR IVA A through mOR IVA L) is reported as “activated”.
